Where “and” joins values, the source holds several entries; their conditions need not be identical. Equal values may be shown once.
Key:
Format in all cases: cell-based, human
[1] = system: PBMC from allergic donors; test: IL-5 ELISPOT with extract-stimulated short-term lines; conditions: positive donor/peptide response; each table line is one donor
Procedure: (§1) Spots were counted by computer-assisted image analysis (Zeiss, KS-ELISPOT reader, Munich, Germany).
(§2) Each assay was performed in triplicate. The level of statistical significance was determined with a Student's t-test using the mean of triplicate values of the response against relevant pools or individual peptides versus the response against the DMSO control.

[2] = system: PBMC from allergic donors; test: IFN-γ ELISPOT with extract-stimulated short-term lines; conditions: positive donor/peptide response; each table line is one donor
Procedure: as §1, §2

[3] = system: PBMC from allergic donors; test: Dual ELISPOT, total IL-5 and IFN-γ response (SFC); conditions: sum of IFNg and IL-5; each table line is one donor
Procedure: as §1, §2

Structure (SMILES) | Response (SFC/10^6) IL-5 [1] | Response (SFC/10^6) IFNg [2] | Response (SFC/10^6) Total [3]
C[C@H](NC(=O)[C@@H](NC(=O)[C@H](C)NC(=O)[C@H](C)NC(=O)[C@H](C)NC(=O)[C@@H]1CCCN1C(=O)[C@@H](NC(=O)[C@H](C)NC(=O)[C@@H](NC(=O)[C@H](C)NC(=O)[C@H](Cc1ccc(O)cc1)NC(=O)[C@H](C)NC(=O)[C@H](C)NC(=O)[C@H](C)NC(=O)[C@@H]1CCCN1)[C@@H](C)O)[C@@H](C)O)[C@@H](C)O)C(=O)O [3324.1184] | 1637 SFC/10^6 | 58 SFC/10^6 | 58 SFC/10^6 and 1637 SFC/10^6
CC[C@H](C)[C@H](NC(=O)[C@H](Cc1ccccc1)NC(=O)[C@H](C)NC(=O)[C@@H](N)CC(=O)O)C(=O)N[C@@H](C)C(=O)N[C@@H](C)C(=O)N[C@@H](CC(C)C)C(=O)N[C@H](C(=O)N[C@@H](CCC(=O)O)C(=O)N[C@@H](C)C(=O)N[C@@H](CC(C)C)C(=O)N[C@@H](CCCNC(=N)N)C(=O)N[C@H](C(=O)N[C@H](C(=O)N[C@@H](C)C(=O)O)[C@@H](C)CC)C(C)C)[C@@H](C)O [3324.1432] | 540 SFC/10^6 | 713 SFC/10^6 | 713 SFC/10^6 and 540 SFC/10^6
CC[C@H](C)[C@H](NC(=O)[C@H](Cc1ccccc1)NC(=O)[C@H](CCCCN)NC(=O)[C@H](Cc1ccc(O)cc1)NC(=O)[C@@H](NC(=O)[C@H](CCC(=O)O)NC(=O)[C@H](Cc1ccc(O)cc1)NC(=O)[C@H](C)NC(=O)CN)[C@@H](C)O)C(=O)N1CCC[C@H]1C(=O)N[C@@H](CO)C(=O)N[C@@H](CC(C)C)C(=O)N[C@@H](CCC(=O)O)C(=O)N[C@@H](C)C(=O)N[C@@H](C)C(=O)O [3324.1433] | 247 SFC/10^6 | 208 SFC/10^6 and 153 SFC/10^6 | 247 SFC/10^6 and 208 SFC/10^6 and 153 SFC/10^6
CC[C@H](C)[C@H](NC(=O)[C@H](C)NC(=O)[C@H](CCCCN)NC(=O)[C@H](CC(N)=O)NC(=O)[C@H](Cc1ccccc1)NC(=O)[C@H](C)NC(=O)CNC(=O)[C@H](CCC(=O)O)NC(=O)[C@H](Cc1ccccc1)NC(=O)[C@@H](NC(=O)[C@@H](NC(=O)[C@H](Cc1ccccc1)NC(=O)[C@H](CCCCN)NC(=O)[C@H](CC(=O)O)NC(=O)[C@@H](N)CC(N)=O)[C@@H](C)O)C(C)C)C(=O)O [3324.1442] | 400 SFC/10^6 | 93 SFC/10^6 | 400 SFC/10^6 and 93 SFC/10^6
CC(C)[C@H](NC(=O)[C@H](Cc1ccccc1)NC(=O)[C@H](CO)NC(=O)[C@H](CC(=O)O)NC(=O)[C@H](Cc1ccccc1)NC(=O)[C@H](CCCCN)NC(=O)[C@H](C)NC(=O)[C@H](CCC(=O)O)NC(=O)[C@@H]1CCCN1C(=O)[C@@H](NC(=O)[C@H](C)N)[C@@H](C)O)C(=O)N[C@@H](C)C(=O)N[C@@H](C)C(=O)N[C@@H](Cc1ccccc1)C(=O)N[C@H](C(=O)O)[C@@H](C)O [3324.1570] | 238 SFC/10^6 | 80 SFC/10^6 and 117 SFC/10^6 | 238 SFC/10^6 and 80 SFC/10^6 and 117 SFC/10^6
CC[C@H](C)[C@H](NC(=O)[C@@H](N)CC(=O)O)C(=O)N[C@@H](CC(N)=O)C(=O)N[C@H](C(=O)NCC(=O)N[C@@H](Cc1ccccc1)C(=O)N[C@@H](CCCCN)C(=O)N[C@@H](C)C(=O)N[C@@H](C)C(=O)N[C@H](C(=O)N[C@@H](C)C(=O)N[C@@H](C)C(=O)N[C@@H](C)C(=O)N[C@@H](C)C(=O)NCC(=O)O)C(C)C)C(C)C [3324.1571] | 397 SFC/10^6 and 1057 SFC/10^6 | 47 SFC/10^6 and 1183 SFC/10^6 | 397 SFC/10^6 and 47 SFC/10^6 and 1057 SFC/10^6 and 1183 SFC/10^6
CC(C)[C@H](NC(=O)[C@H](C)NC(=O)[C@H](C)NC(=O)[C@H](CCCCN)NC(=O)[C@@H](N)Cc1ccccc1)C(=O)N[C@@H](C)C(=O)N[C@@H](C)C(=O)N[C@@H](C)C(=O)N[C@@H](C)C(=O)NCC(=O)N[C@@H](C)C(=O)N1CCC[C@H]1C(=O)N1CCC[C@H]1C(=O)N[C@@H](C)C(=O)N[C@@H](CC(=O)O)C(=O)O [3324.1575] | 138 SFC/10^6 and 327 SFC/10^6 | 230 SFC/10^6 | 138 SFC/10^6 and 327 SFC/10^6 and 230 SFC/10^6
CC[C@H](C)[C@H](NC(=O)[C@H](CC(=O)O)NC(=O)[C@H](CCC(=O)O)NC(=O)[C@H](CCSC)NC(=O)[C@H](CC(C)C)NC(=O)[C@H](CCCCN)NC(=O)[C@@H](N)CCC(N)=O)C(=O)N[C@@H](CC(N)=O)C(=O)N[C@H](C(=O)NCC(=O)N[C@@H](Cc1ccccc1)C(=O)N[C@@H](CCCCN)C(=O)N[C@@H](C)C(=O)N[C@@H](C)C(=O)N[C@H](C(=O)O)C(C)C)C(C)C [3324.1580] | 107 SFC/10^6 | 317 SFC/10^6 and 283 SFC/10^6 | 317 SFC/10^6 and 390 SFC/10^6

From US10918713B2, “Epitopes from allergen proteins and methods and uses for immune response modulation” (LA JOLLA INSTITUTE FOR ALLERGY AND IMMUNOLOGY, priority 2012, dated 2021)
